pIC50: −log10 of the molar value.
Columns and labels:
[1] = molecular target: baculovirus-expressed ALK (Homo sapiens, UniProt Q9UM73); assay: ALK kinase inhibition, TRF/ELISA; type: biochemical; settings: read-out: ALK Potency
Protocol: Briefly, each 96-well plate was coated with 100 μL/well of 10 μg/mL substrate (GST-PLC-γ) in Tris-buffered saline (TBS). […] The reaction was initiated by adding enzyme (30 ng/mL ALK) and was allowed to proceed at 37° C. for 15 minutes. Detection of the phosphorylated product was performed by adding 100 μL/well of Eu-N1 labeled PT66 antibody (Perkin Elmer #AD0041). […] Data analysis was performed using ActivityBase (IDBS, Guilford, UK). IC50 values were calculated by plotting percent inhibition versus log10 of the concentration of compound and fitting to the nonlinear regression sigmoidal dose-response (variable slope) equation in XLFit (IDBS, Guilford, UK).

[2] = molecular target: baculovirus-expressed JAK2 kinase (Homo sapiens, UniProt O60674); assay: biochemical; settings: 0.2 μM ATP; read-out: JAK2 Potency
baculovirus-expressed JAK2 kinase, sequence (O60674 whole entry): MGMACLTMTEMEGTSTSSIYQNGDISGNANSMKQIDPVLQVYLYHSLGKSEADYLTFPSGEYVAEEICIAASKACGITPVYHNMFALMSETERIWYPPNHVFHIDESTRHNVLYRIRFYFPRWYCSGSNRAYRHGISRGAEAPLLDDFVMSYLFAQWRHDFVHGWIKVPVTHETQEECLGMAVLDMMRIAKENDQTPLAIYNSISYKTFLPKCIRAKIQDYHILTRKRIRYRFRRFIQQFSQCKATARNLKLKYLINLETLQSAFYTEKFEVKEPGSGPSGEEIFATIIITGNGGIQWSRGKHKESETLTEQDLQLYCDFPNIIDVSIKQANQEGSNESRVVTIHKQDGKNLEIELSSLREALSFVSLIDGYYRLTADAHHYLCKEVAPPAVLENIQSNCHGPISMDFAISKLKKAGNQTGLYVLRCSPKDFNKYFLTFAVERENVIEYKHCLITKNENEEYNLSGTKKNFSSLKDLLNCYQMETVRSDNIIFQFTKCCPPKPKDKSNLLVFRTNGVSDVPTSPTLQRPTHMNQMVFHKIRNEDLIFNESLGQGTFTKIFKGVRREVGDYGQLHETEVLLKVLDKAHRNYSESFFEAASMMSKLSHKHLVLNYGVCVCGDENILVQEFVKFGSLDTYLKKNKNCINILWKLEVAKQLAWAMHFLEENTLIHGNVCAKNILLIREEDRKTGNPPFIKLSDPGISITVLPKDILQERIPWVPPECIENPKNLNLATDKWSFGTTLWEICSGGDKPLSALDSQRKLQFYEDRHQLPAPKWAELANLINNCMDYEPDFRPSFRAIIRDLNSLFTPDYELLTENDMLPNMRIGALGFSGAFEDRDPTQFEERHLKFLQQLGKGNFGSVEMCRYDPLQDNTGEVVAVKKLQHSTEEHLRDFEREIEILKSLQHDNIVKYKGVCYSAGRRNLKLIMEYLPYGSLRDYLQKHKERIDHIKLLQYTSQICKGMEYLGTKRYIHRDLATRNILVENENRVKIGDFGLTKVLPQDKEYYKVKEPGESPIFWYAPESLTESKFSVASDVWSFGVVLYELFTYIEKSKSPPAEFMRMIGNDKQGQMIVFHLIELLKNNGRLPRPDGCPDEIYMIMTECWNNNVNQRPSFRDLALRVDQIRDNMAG
Protocol: Compounds were tested for their ability to inhibit the kinase activity of baculovirus-expressed JAK2 kinase using the time-resolved fluorescence (TRF) detection system. […] The plates were coated with 100 μL/well of 10 μg/mL Neutravidin (Pierce #31000, Rockford, Ill.) in TBS at 37° C. for 2 h, followed by 100 μL/well of 1 μg/mL 15-mer peptide substrate (biotinyl-amino-hexanoyl-[…]-amide, Infinity Biotech Research and Resource, Aston, Pa.) at 37° C. for 1 h. […] Enzyme (15 ng/mL JAK2) was added and the reaction was allowed to proceed at room temperature for 20 min. […] Inhibition data were analyzed using ActivityBase (IDBS, Guilford, UK). IC50 values were calculated by plotting percent inhibition versus log10 of the concentration of compound and fitting to the nonlinear regression sigmoidal dose-response (variable slope) equation in XLFit (IDBS, Guilford, UK).

baculovirus-expressed ALK, sequence (Q9UM73 19-1620): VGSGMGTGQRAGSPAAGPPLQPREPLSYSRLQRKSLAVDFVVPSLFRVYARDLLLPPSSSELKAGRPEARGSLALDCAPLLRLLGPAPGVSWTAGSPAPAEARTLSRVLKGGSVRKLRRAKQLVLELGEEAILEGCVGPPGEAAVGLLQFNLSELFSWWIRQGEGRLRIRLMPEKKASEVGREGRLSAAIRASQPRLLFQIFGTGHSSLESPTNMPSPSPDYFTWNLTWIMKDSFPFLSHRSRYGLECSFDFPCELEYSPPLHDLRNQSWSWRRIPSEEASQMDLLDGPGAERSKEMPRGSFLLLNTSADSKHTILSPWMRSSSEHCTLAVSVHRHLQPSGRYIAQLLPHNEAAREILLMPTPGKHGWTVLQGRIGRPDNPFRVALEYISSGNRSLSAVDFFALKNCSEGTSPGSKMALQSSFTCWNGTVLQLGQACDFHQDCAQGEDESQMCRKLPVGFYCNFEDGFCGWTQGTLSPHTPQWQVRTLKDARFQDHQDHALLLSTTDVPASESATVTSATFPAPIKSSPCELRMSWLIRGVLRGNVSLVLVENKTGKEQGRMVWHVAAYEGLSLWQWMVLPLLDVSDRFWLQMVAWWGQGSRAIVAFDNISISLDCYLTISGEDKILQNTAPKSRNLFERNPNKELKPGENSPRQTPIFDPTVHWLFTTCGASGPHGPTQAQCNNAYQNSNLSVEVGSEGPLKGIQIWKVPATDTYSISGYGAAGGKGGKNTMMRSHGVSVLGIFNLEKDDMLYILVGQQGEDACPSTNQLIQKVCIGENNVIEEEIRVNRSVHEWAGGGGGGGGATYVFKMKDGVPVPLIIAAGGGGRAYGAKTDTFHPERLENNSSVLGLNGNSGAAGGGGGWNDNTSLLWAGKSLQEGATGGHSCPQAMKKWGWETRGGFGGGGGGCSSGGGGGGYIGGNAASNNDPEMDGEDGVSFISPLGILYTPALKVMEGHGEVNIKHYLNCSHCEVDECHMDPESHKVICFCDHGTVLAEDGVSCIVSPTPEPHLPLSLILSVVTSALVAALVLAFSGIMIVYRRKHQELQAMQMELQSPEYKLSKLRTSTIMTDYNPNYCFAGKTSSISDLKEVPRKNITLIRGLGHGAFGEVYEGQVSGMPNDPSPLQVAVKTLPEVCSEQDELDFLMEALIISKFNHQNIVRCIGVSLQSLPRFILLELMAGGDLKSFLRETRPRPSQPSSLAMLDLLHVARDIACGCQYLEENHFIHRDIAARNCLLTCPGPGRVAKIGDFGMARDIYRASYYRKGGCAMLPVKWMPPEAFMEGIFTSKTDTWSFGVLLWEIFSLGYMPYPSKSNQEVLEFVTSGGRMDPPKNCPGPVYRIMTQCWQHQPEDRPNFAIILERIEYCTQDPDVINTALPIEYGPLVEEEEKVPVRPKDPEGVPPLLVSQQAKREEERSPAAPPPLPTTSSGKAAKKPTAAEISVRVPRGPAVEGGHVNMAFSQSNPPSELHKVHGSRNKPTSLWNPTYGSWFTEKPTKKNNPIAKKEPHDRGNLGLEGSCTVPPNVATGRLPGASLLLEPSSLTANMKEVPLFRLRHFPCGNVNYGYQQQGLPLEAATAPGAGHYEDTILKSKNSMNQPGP

COc1cc(CN2CCNCC2)ccc1-c1nc2c(N[C@H]3[C@@H](C(N)=O)[C@@H]4C=C[C@H]3C4)c(Cl)cnc2[nH]1 [Compound XLII, (1S,2S,3R,4R)-3-[6-Chloro-2-(2-methoxy-4-piperazin-1-ylmethyl-phenyl)-3H-imidazo[4,5-b]pyridine-7-ylamino]-bicyclo[2.2.1]hept-5-ene-2-carboxylic acid amide]
pIC50 [1]: > 7.00 | pIC50 [2]: 6.00 to 7.00

CC12CCC(Nc3c(Cl)cnc4[nH]c(-c5ccc(N6CCOCC6)cc5)nc34)(CC1=O)C2(C)C (centres unmarked) [Compound CXCVIII, 4-(6-chloro-2-(4-morpholinophenyl)-3H-imidazo[4,5-b]pyridin-7-ylamino)-1,7,7-trimethylbicyclo[2.2.1]heptan-2-one]
pIC50 [1]: < 5.00 | pIC50 [2]: > 7.00

NC(=O)[C@@H]1[C@H](Nc2c(Cl)cnc3[nH]c(C4CCCNC4)nc23)[C@H]2C=C[C@@H]1C2 (single isomer, unassigned) [XIII]
pIC50 [1]: < 5.00 | pIC50 [2]: < 5.00

CN1CCN(C(=O)COc2ccc(-c3nc4c(N[C@H]5[C@@H](C(N)=O)[C@@H]6C=C[C@H]5C6)c(Cl)cnc4[nH]3)cc2)CC1 [Compound CCXLIV, (1S,2S,3R,4R)-3-(6-chloro-2-(4-(2-(4-methylpiperazin-1-yl)-2-oxoethoxy)phenyl)-3H-imidazo[4,5-b]pyridin-7-ylamino)bicyclo[2.2.1]hept-5-ene-2-carboxamide]
pIC50 [1]: > 7.00 | pIC50 [2]: > 7.00

CN1CCN(CCOc2ccc(-c3nc4c(N[C@H]5[C@@H](C(=O)N(C)C)[C@@H]6C=C[C@H]5C6)c(Cl)cnc4[nH]3)cc2)CC1 [Compound CLXXV, (1S,2S,3R,4R)-3-(6-Chloro-2-{4-[2-(4-methyl-piperazin-1-yl)-ethoxy]-phenyl}-3H-imidazo[4,5-b]pyridin-7-ylamino)-bicyclo[2.2.1]hept-5-ene-2-carboxylic acid dimethylamide]
pIC50 [1]: > 7.00 | pIC50 [2]: > 7.00

NC(=O)[C@@H]1[C@H](Nc2c(Cl)cnc3[nH]c(-c4ccc(N5CCOCC5)c(Cl)c4)nc23)[C@H]2C=C[C@@H]1C2 [Compound CXXXVII, (1S,2S,3R,4R)-3-[6-Chloro-2-(3-chloro-4-morpholin-4-yl-phenyl)-3H-imidazo[4,5-b]pyridin-7-ylamino]-bicyclo[2.2.1]hept-5-ene-2-carboxylic acid amide]
pIC50 [1]: 6.00 to 7.00 | pIC50 [2]: > 7.00

NC(=O)[C@@H]1[C@H](Nc2c(Cl)cnc3[nH]c(-c4cccc(C(=O)NCC(=O)O)c4)nc23)[C@H]2C=C[C@@H]1C2 [Compound CCXXVII, 2-(3-(7-((1R,2R,3S,4S)-3-carbamoylbicyclo[2.2.1]hept-5-en-2-ylamino)-6-chloro-3H-imidazo[4,5-b]213yridine-2-yl)benzamido)acetic acid]
pIC50 [1]: 5.00 to 6.00 | pIC50 [2]: > 7.00

NC(=O)[C@@H]1[C@H](Nc2c(Br)cnc3[nH]c(-c4ccc(Cl)cc4)nc23)[C@H]2C=C[C@@H]1C2 [Compound CXLIII, (1S,2S,3R,4R)-3-[6-Bromo-2-(4-chloro-phenyl)-3H-imidazo[4,5-b]pyridin-7-ylamino]-bicyclo[2.2.1]hept-5-ene-2-carboxylic acid amide]
pIC50 [1]: 6.00 to 7.00 | pIC50 [2]: > 7.00

Cc1nn(C)c(C)c1-c1nc2c(N[C@H]3[C@@H](C(N)=O)[C@@H]4C=C[C@H]3C4)c(Cl)cnc2[nH]1 [Compound CLI, (1S,2S,3R,4R)-3-[6-Chloro-2-(1,3,5-trimethyl-1H-pyrazol-4-yl)-3H-imidazo[4,5-b]pyridin-7-ylamino]-bicyclo[2.2.1]hept-5-ene-2-carboxylic acid amide]
pIC50 [1]: > 7.00 | pIC50 [2]: > 7.00

CN(C)C(=O)[C@@H]1[C@H](Nc2c(Cl)cnc3[nH]c(-c4sc(N5CCOCC5)nc4Cl)nc23)[C@H]2C=C[C@@H]1C2 [Compound CLXII, (1S,2S,3R,4R)-3-[6-Chloro-2-(4-chloro-2-morpholin-4-yl-thiazol-5-yl)-3H-imidazo[4,5-b]pyridin-7-ylamino]-bicyclo[2.2.1]hept-5-ene-2-carboxylic acid dimethylamide]
pIC50 [1]: > 7.00 | pIC50 [2]: > 7.00

NC(=O)[C@@H]1[C@H](Nc2c(Cl)cnc3[nH]c(-c4cccc(C(=O)N5CCNCC5)c4)nc23)[C@H]2C=C[C@@H]1C2 [Compound CCXIX, (1S,2S,3R,4R)-3-(6-chloro-2-(3-(piperazine-1-carbonyl)phenyl)-3H-imidazo[4,5-b]pyridin-7-ylamino)bicyclo[2.2.1]hept-5-ene-2-carboxamide]
pIC50 [1]: > 7.00 | pIC50 [2]: > 7.00

CN(C)c1nc(Cl)c(-c2nc3c(N[C@H]4[C@@H](C(N)=O)[C@@H]5C=C[C@H]4C5)c(Cl)cnc3[nH]2)s1 [Compound CLIV, (1S,2S,3R,4R)-3-[6-Chloro-2-(4-chloro-2-dimethylamino-thiazol-5-yl)-3H-imidazo[4,5-b]pyridin-7-ylamino]-bicyclo[2.2.1]hept-5-ene-2-carboxylic acid amide]
pIC50 [1]: > 7.00 | pIC50 [2]: > 7.00

CC12CCC(Nc3c(Cl)cnc4[nH]c(-c5ccc(N6CCOCC6)cc5)nc34)(CC1O)C2(C)C (centres unmarked) [Compound CCI, 4-(6-chloro-2-(4-morpholinophenyl)-3H-imidazo[4,5-b]pyridin-7-ylamino)-1,7,7-trimethylbicyclo[2.2.1]heptan-2-ol]
pIC50 [1]: < 5.00 | pIC50 [2]: > 7.00

NC(=O)[C@@H]1[C@H](Nc2c(Br)cnc3[nH]c(-c4ccc(CN5CCOCC5)cc4)nc23)[C@H]2C=C[C@@H]1C2 [Compound LXXX, (1S,2S,3R,4R)-3-[6-Bromo-2-(4-morpholin-4-ylmethyl-phenyl)-3H-imidazo[4,5-b]pyridin-7-ylamino]-bicyclo[2.2.1]hept-5-ene-2-carboxylic acid amide]
pIC50 [1]: > 7.00 | pIC50 [2]: > 7.00

NC(=O)[C@@H]1[C@H](Nc2c(Cl)cnc3[nH]c(-c4ccnc(N5CCOCC5)c4)nc23)[C@H]2C=C[C@@H]1C2 [Compound CXXVI, (1S,2S,3R,4R)-3-[6-Chloro-2-(2-morpholin-4-yl-pyridin-4-yl)-3H-imidazo[4,5-b]pyridin-7-ylamino]-bicyclo[2.2.1]hept-5-ene-2-carboxylic acid amide]
pIC50 [1]: 6.00 to 7.00 | pIC50 [2]: > 7.00

NC(=O)[C@@H]1[C@H](Nc2c(Br)cnc3[nH]c(-c4ccccc4Cl)nc23)[C@H]2C=C[C@@H]1C2 [Compound CXLIX, (1S,2S,3R,4R)-3-[6-Bromo-2-(2-chloro-phenyl)-3H-imidazo[4,5-b]pyridin-7-ylamino]-bicyclo[2.2.1]hept-5-ene-2-carboxylic acid amide]
pIC50 [1]: 6.00 to 7.00 | pIC50 [2]: > 7.00

CN1CCN(c2nc(Cl)c(-c3nc4c(N[C@H]5[C@@H](C(=O)N(C)C)[C@@H]6C=C[C@H]5C6)c(Cl)cnc4[nH]3)s2)CC1 [Compound CCLXIV, (1S,2S,3R,4R)-3-((6-chloro-2-(4-chloro-2-(4-methylpiperazin-1-yl)thiazol-5-yl)-3H-imidazo[4,5-b]pyridin-7-yl)amino)-N,N-dimethylbicyclo[2.2.1]hept-5-ene-2-carboxamide]
pIC50 [1]: > 7.00 | pIC50 [2]: > 7.00

NC(=O)[C@@H]1[C@H](Nc2c(Cl)cnc3[nH]c(-c4cncs4)nc23)[C@H]2C=C[C@@H]1C2 [Compound CCVII, (1S,2S,3R,4R)-3-(6-chloro-2-(thiazol-5-yl)-3H-imidazo[4,5-b]pyridin-7-ylamino)bicyclo[2.2.1]hept-5-ene-2-carboxamide]
pIC50 [1]: 6.00 to 7.00 | pIC50 [2]: > 7.00

NC(=O)[C@@H]1[C@H](Nc2c(Cl)cnc3[nH]c(-c4ccc(C(=O)N5CCNCC5)cc4)nc23)[C@H]2C=C[C@@H]1C2 [Compound CCXX, (1S,2S,3R,4R)-3-(6-chloro-2-(4-(piperazine-1-carbonyl)phenyl)-3H-imidazo[4,5-b]pyridin-7-ylamino)bicyclo[2.2.1]hept-5-ene-2-carboxamide]
pIC50 [1]: > 7.00 | pIC50 [2]: > 7.00

Cn1cc(-c2nc3c(N[C@@]45CCC(C)(C(O)C4)C5(C)C)c(Cl)cnc3[nH]2)cn1 (stereo partly drawn) [Compound CCII, (4S)-4-(6-chloro-2-(1-methyl-1H-pyrazol-4-yl)-3H-imidazo[4,5-b]pyridin-7-ylamino)-1,7,7-trimethylbicyclo[2.2.1]heptan-2-ol]
pIC50 [1]: < 5.00 | pIC50 [2]: > 7.00

N#Cc1ccc(-c2nc3c(N[C@H]4[C@@H](C(N)=O)[C@@H]5C=C[C@H]4C5)c(Br)cnc3[nH]2)cc1 [Compound CXLVII, (1S,2S,3R,4R)-3-[6-Bromo-2-(4-cyano-phenyl)-3H-imidazo[4,5-b]pyridin-7-ylamino]-bicyclo[2.2.1]hept-5-ene-2-carboxylic acid amide]
pIC50 [1]: 6.00 to 7.00 | pIC50 [2]: > 7.00

NC(=O)[C@@H]1[C@H](Nc2c(Cl)cnc3[nH]c(-c4ccccc4F)nc23)[C@H]2C=C[C@@H]1C2 [Compound CXXVII, (1S,2S,3R,4R)-3-[6-Chloro-2-(2-fluoro-phenyl)-3H-imidazo[4,5-b]pyridin-7-ylamino]-bicyclo[2.2.1]hept-5-ene-2-carboxylic acid amide]
pIC50 [1]: 6.00 to 7.00 | pIC50 [2]: > 7.00

From patent publication US9238656B2, “Imidazo[4,5-b]pyridine derivatives as ALK and JAK modulators for the treatment of proliferative disorders” (priority 2012, dated 2016)
